Consider 57 compounds from patent US7183276B2, “Azole compounds” (Takeda Pharmaceutical Company Limited, priority 2002, dated 2007).

In general, melting point refers to the temperature, or range, at which the solid turns liquid.

As for `CCOP(=O)(Cc1ccc(NC(=O)CCc2oc(Cl)nc2-c2ccc(Cl)cc2)cc1)OCC`, the melting point is 137 to 138 °C.

`CCOP(=O)(Cc1ccc(NC(=O)CCCc2oc(-n3cnc4ccccc43)nc2-c2ccc(Cl)cc2)c(C)c1)OCC` returned a melting point of 118 to 119 °C.

Take `CCOP(=O)(OCC)c1ccc(NC(=O)CCCc2oc(-n3cnc4ccccc43)nc2-c2ccc(Cl)cc2)cc1`: the melting point lay within 162 to 163 °C.

As for `CCOP(=O)(OCC)c1ccc(NC(=O)CCc2oc(-n3cnc4ccccc43)nc2-c2ccc(Cl)cc2)cc1`, the melting point lay in the range of 249 to 250 °C.

On to `CCOP(=O)(Cc1ccc(NC(=O)CCc2oc(C3CCCCC3)nc2-c2ccc(Cl)cc2)cc1)OCC`, for which the melting point was in the range of 133 to 134 °C.

`CCOP(=O)(Cc1ccc(NC(=O)CCc2oc(Cc3ccccc3)nc2-c2ccc(Cl)cc2)cc1)OCC` gave a melting point of 161 to 162 °C.

The compound `CCOP(=O)(Cc1ccc(NC(=O)CCc2oc(-n3cnc(C)c3C)nc2-c2ccc(Cl)cc2)cc1)OCC` showed a melting point of 179 to 180 °C.

`CCOP(=O)(Cc1ccc(NC(=O)CCCc2oc(N3CCCC3)nc2-c2ccc(Cl)cc2)cc1)OCC`: the melting point fell in the range of 127 to 128 °C.

`CCOP(=O)(Cc1ccc(NC(=O)CCc2oc(-c3ccc(F)cc3)nc2-c2ccc(Cl)cc2)cc1)OCC` registered a melting point of 148 to 149 °C.

Consider `CCOP(=O)(Cc1ccc(NC(=O)CCc2sc(-n3cnc4ccccc43)nc2-c2ccccc2)cc1)OCC`, for which the melting point was in the range of 142 to 143 °C.

`CCOP(=O)(Cc1ccc(NC(=O)CCc2oc(-c3ccc4ccccc4c3)nc2-c2ccc(Cl)cc2)cc1)OCC` had a melting point of 191 to 192 °C.

On to `CCOP(=O)(Cc1ccc(NC(=O)/C=C/c2sc(-n3cnc4ccccc43)nc2C(C)(C)C)cc1)OCC`, for which the melting point fell in the range of 211 to 212 °C.

The compound `CCOP(=O)(Cc1ccc(NC(=O)/C=C/c2sc(-n3cnc4ccccc43)nc2C(C)C)cc1)OCC` came in with a melting point of 198 to 199 °C.

`CCOP(=O)(Cc1ccc(NC(=O)CCc2sc(-n3cnc4ccccc43)nc2C(C)(C)C)cc1)OCC` showed a melting point of 155 to 156 °C.

Take `CCOP(=O)(Cc1ccc(NC(=O)Cc2sc(-n3cnc4ccccc43)nc2-c2ccc(Cl)cc2)cc1)OCC`: the melting point lay within 154 to 155 °C.

As to `COP(=O)(Cc1ccc(NC(=O)CCCCCc2sc(-c3ccccc3)nc2-c2ccc(Cl)cc2)cc1)OC`, the melting point lay in the range of 164 to 165 °C.

On to `CCOP(=O)(Cc1ccc(NC(=O)CCCCc2sc(-n3cnc4ccccc43)nc2-c2ccc(Cl)cc2)cc1)OCC`, for which the melting point fell in the range of 168 to 169 °C.

The compound `CCOP(=O)(Cc1ccc(NC(=O)CCc2oc(-n3ccnc3)nc2-c2ccc(Cl)cc2)cc1)OCC` yielded a melting point of 196 to 197 °C.

Regarding `CCOP(=O)(Cc1ccc(NC(=O)CCc2sc(NC(=O)c3ccccn3)nc2-c2ccc(Cl)cc2)cc1)OCC`, the melting point is 184 to 185 °C.

`CCOP(=O)(Cc1ccc(NC(=O)CCc2sc(NC(=O)NC)nc2-c2ccc(Cl)cc2)cc1)OCC` returned a melting point of 206 to 207 °C.

As for `CCOP(=O)(Cc1ccc(NC(=O)CCc2sc(NC(=O)NCc3ccccc3)nc2-c2ccc(Cl)cc2)cc1)OCC`, the melting point lay in the range of 144 to 145 °C.

In turn, `CCOP(=O)(Cc1ccc(NC(=O)CCc2sc(NC(=O)Nc3ccccc3)nc2-c2ccc(Cl)cc2)cc1)OCC` came in with a melting point of 175 to 176 °C.

The compound `CCOP(=O)(Cc1ccc(NC(=O)CCc2sc(NS(=O)(=O)c3ccccc3)nc2-c2ccc(Cl)cc2)cc1)OCC` showed a melting point of 213 to 214 °C.

`CCOP(=O)(Cc1ccc(NC(=O)CCc2sc(NC(=S)NCc3ccccc3)nc2-c2ccc(Cl)cc2)cc1)OCC` showed a melting point of 202 to 203 °C.

In turn, `CCOP(=O)(Cc1ccc(NC(=O)CCc2sc(NC(=S)NC(=O)c3ccccc3)nc2-c2ccc(Cl)cc2)cc1)OCC` returned a melting point of 208 to 209 °C.

`CCOP(=O)(Cc1ccc(NC(=O)CCc2oc(-n3cnc4ccccc43)nc2-c2ccccc2)cc1)OCC`: the melting point is 148 to 149 °C.

Compound `CCOP(=O)(Cc1ccc(NC(=O)CCc2oc(-c3ccc(OC)cc3)nc2-c2ccc(Cl)cc2)cc1)OCC` yielded a melting point of 141 to 142 °C.

`CCCc1nc(-c2ccc(Cl)cc2)c(CCC(=O)Nc2ccc(CP(=O)(OCC)OCC)cc2)o1` gave a melting point of 108 to 109 °C.

In turn, `CCOP(=O)(OCC)C(O)c1ccc(NC(=O)CCc2oc(-n3cnc4ccccc43)nc2-c2ccc(Cl)cc2)cc1` (stereo not drawn) returned a melting point of 171 to 172 °C.

In turn, `CCOP(=O)(OCC)C(OC)c1ccc(NC(=O)CCc2oc(-n3cnc4ccccc43)nc2-c2ccc(Cl)cc2)cc1` (stereo not drawn) showed a melting point of 191 to 192 °C.

Take `CCOP(=O)(Cc1ccc(NC(=O)CCc2oc(Sc3ncccn3)nc2-c2ccc(Cl)cc2)cc1)OCC`: the melting point was in the range of 146 to 147 °C.

With `CCOP(=O)(OCC)C(F)c1ccc(NC(=O)CCc2oc(-n3cnc4ccccc43)nc2-c2ccc(Cl)cc2)cc1` (stereo not drawn), the melting point lay in the range of 152 to 155 °C.

In turn, `CCCc1nc(-c2ccc(Cl)cc2)c(CCC(=O)N2CCN(CC3CCN(C)CC3)CC2)o1.Cl.Cl` gave a melting point of 218 °C.

Turning to `CCOP(=O)(Cc1ccc(NC(=O)Cc2oc(-c3ccccc3)nc2-c2ccc(Cl)cc2)cc1)OCC`, the melting point lay in the range of 173 to 174 °C.

`COP(=O)(Cc1ccc(NC(=O)CCc2oc(-c3ccccc3)nc2-c2ccc(Cl)cc2)cc1)OC`: the melting point lay in the range of 153 to 154 °C.

With `CCOP(=O)(Cc1ccc(NC(=O)CCc2oc(N3CCOCC3)nc2-c2ccc(Cl)cc2)cc1)OCC`, the melting point lay in the range of 186 to 187 °C.

In the case of `CCOP(=O)(OCC)c1ccc(NC(=O)CCc2sc(-c3ccccc3)nc2-c2ccc(Cl)cc2)cc1`, the melting point fell in the range of 186 to 187 °C.

`CCOP(=O)(Cc1ccc(NC(=O)CCc2ocnc2-c2ccc(Cl)cc2)cc1)OCC` gave a melting point of 130 to 131 °C.

For `CCOP(=O)(CCCNC(=O)CCc1oc(-n2cnc3ccccc32)nc1-c1ccc(Cl)cc1)OCC`, the melting point is 130 to 131 °C.

As for `NC(=O)CCc1oc(-n2cnc3ccccc32)nc1-c1ccc(Cl)cc1` [Example 8, 3-[2-(1H-benzimidazol-1-yl)-4-(4-chlorophenyl)-5-oxazolyl]propionamide], the melting point fell in the range of 265 to 266 °C.

On to `NC(=O)CCc1oc(N2CCOCC2)nc1-c1ccc(Cl)cc1` [Example 9, 3-[4-(4-chlorophenyl)-2-(4-morpholinyl)-5-oxazolyl]propionamide], for which the melting point lay in the range of 180 to 181 °C.

With `Cc1ccc(Sc2nc(-c3ccc(Cl)cc3)c(CCC(N)=O)o2)cc1` [Example 10, 3-[4-(4-chlorophenyl)-2-[(4-methylphenyl)sulfanyl]-5-oxazolyl]propionamide], the melting point lay in the range of 155 to 156 °C.

Turning to `NC(=O)CCc1oc(C2CCCCC2)nc1-c1ccc(Cl)cc1` [Example 17, 3-[4-(4-chlorophenyl)-2-cyclohexyl-5-oxazolyl]propionamide], the melting point lay in the range of 142 to 143 °C.

Take `NC(=O)CCc1oc(Cc2ccccc2)nc1-c1ccc(Cl)cc1` [Example 18, 3-[2-benzyl-4-(4-chlorophenyl)-5-oxazolyl]propionamide]: the melting point was 169 to 170 °C.

`Cc1ncn(-c2nc(-c3ccc(Cl)cc3)c(CCC(N)=O)o2)c1C` [Example 19, 3-[4-(4-chlorophenyl)-2-(4,5-dimethyl-1-imidazolyl)-5-oxazolyl]propionamide] gave a melting point of 232 to 233 °C.

As for `NC(=O)CCc1oc(-c2ccc(F)cc2)nc1-c1ccc(Cl)cc1` [Example 23, 3-[4-(4-chlorophenyl)-2-(4-fluorophenyl)-5-oxazolyl]propionamide], the melting point is 212 to 213 °C.

`NC(=O)CCc1oc(-c2ccc3ccccc3c2)nc1-c1ccc(Cl)cc1` [Example 24, 3-[4-(4-chlorophenyl)-2-(2-naphthyl)-5-oxazolyl]propionamide] came in with a melting point of 206 to 207 °C.

In turn, `NC(=O)CCc1oc(-c2cccs2)nc1-c1ccc(Cl)cc1` [Example 25, 3-[4-(4-chlorophenyl)-2-(2-thienyl)-5-oxazolyl]propionamide] yielded a melting point of 226 to 227 °C.

Compound `COc1ccc(-c2nc(-c3ccc(Cl)cc3)c(CCC(N)=O)o2)cc1` [Example 28, 3-[4-(4-chlorophenyl)-2-(4-methoxyphenyl)-5-oxazolyl]propionamide] gave a melting point of 215 to 216 °C.

As to `CCCc1nc(-c2ccc(Cl)cc2)c(CCC(N)=O)o1` [Example 29, 3-[4-(4-chlorophenyl)-2-propyl-5-oxazolyl]propionamide], the melting point fell in the range of 150 to 151 °C.

In turn, `NC(=O)CCc1oc(N2CCN(c3ccccc3)CC2)nc1-c1ccc(Cl)cc1` [Example 31, 3-[4-(4-chlorophenyl)-2-(4-phenyl-1-piperazinyl)-5-oxazolyl]propionamide] had a melting point of 187 to 188 °C.

With `NC(=O)CCc1oc(Sc2ncccn2)nc1-c1ccc(Cl)cc1` [Example 33, 3-[4-(4-chlorophenyl)-2-(2-pyrimidinylsulfanyl)-5-oxazolyl]propionamide], the melting point lay in the range of 194 to 195 °C.

On to `NC(=O)CCc1oc(Sc2ccccn2)nc1-c1ccc(Cl)cc1` [Example 36, 3-[4-(4-chlorophenyl)-2-(2-pyridinylsulfanyl)-5-oxazolyl]propionamide], for which the melting point is 162 to 163 °C.

In the case of `NC(=O)CCc1oc(Oc2ccccc2)nc1-c1ccc(Cl)cc1` [Example 38, 3-[4-(4-chlorophenyl)-2-phenoxy-5-oxazolyl]propionamide], the melting point lay within 139 to 140 °C.

Turning to `O=C(CCc1oc(-c2ccccc2)nc1-c1ccc(Cl)cc1)Nc1cccnc1` [Example 41, 3-[4-(4-chlorophenyl)-2-phenyl-5-oxazolyl]-N-(3-pyridinyl)propionamide], the melting point lay in the range of 204 to 205 °C.

On to `COC(=O)c1ccc(NC(=O)CCc2oc(-c3ccccc3)nc2-c2ccc(Cl)cc2)cc1` [Example 42, 3-[4-(4-chlorophenyl)-2-phenyl-5-oxazolyl]-N-[4-(methoxycarbonyl)phenyl]propionamide], for which the melting point is 198 to 200 °C.

`NC(=O)CCc1oc(-c2ccccc2)nc1-c1ccc(Cl)cc1` [Example 43, 3-[4-(4-chlorophenyl)-2-phenyl-5-oxazolyl]propionamide] registered a melting point of 207 to 208 °C.
